Laboratory results: patent US9409952B2, “Peptide-compound cyclization method” (Chugai Seiyaku Kabushiki Kaisha, priority 2011, dated 2016)
Where two headings read alike, the source gives them in different places. Starred links: 1 amine or outer side, 2 acyl side, 3 side chain; linkers in the order of their positions; H or OH if unused. Positions of bridges follow the written chain, without caps; N, C: chain ends. Non-standard residues stand in square brackets, D forms with d. Residues, ends and D or L forms follow the SMILES beside them. *: point of attachment. NEtPhe = CCN[C@@H](Cc1ccccc1)C(=O)O; NMeF = CN[C@@H](Cc1ccccc1)C(=O)O; NMeGABA = CN(CCCC(=O)[*:2])[*:1]; NMeI = CC[C@H](C)[C@H](NC)C(=O)O; NMeβAla = CN(CCC(=O)[*:2])[*:1]; NMeL = CN[C@@H](CC(C)C)C(=O)O; Phg = N[C@H](C(=O)O)c1ccccc1; NMeV = CN[C@H](C(=O)O)C(C)C; NMeA = CN[C@@H](C)C(=O)O; Piperidide = C1CCN(*)CC1; dNMeA = CN[C@H](C)C(=O)O; Aib = CC(C)(N)C(=O)O; NPrGly = CCCNCC(=O)O; Sar = CNCC(=O)O; tBu = CC(C)(C)*

Legend:
[1] = PAMPA (parallel artificial membrane permeability assay); assay type: in vitro ADME; conditions: PAMPA
In short: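 Artificial membrane was 10% (w/v) egg lecithin plus 0.5% (w/v) cholesterol in dodecane on a PVDF filter. A 10 mM DMSO stock was added at 0.5% (v/v) to donor buffer (50 mM MOPSO, pH 6.5, 5.0% glycocholic acid). After 18 h at 37 °C, LC/MS or LC/UV gave donor and acceptor levels for Pe.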

[2] = Metabolic stability in human hepatic microsome; assay type: in vitro ADME; conditions: microsomes
[3] = membrane permeation rate (Pe), 50 mM MOPSO buffer pH 6.5 with 5.0% glycocholic acid, 37° C., 18 hours, read-out: iPAMPA Pe
[4] = pH 7.4, human hepatic microsome, NADPH(+), read-out: CL NADPH(+)

SMILES	Papp at 18 hours, 50 µM ([1]; pH 6.5) [×10⁻⁶ cm/s]	microsomal CLint at 1 uM ([2]; human, pH 7.4, CL NADPH(+)) [µL/min/mg]	Papp at 18 hours, 50 µM [1, 3] [×10⁻⁶ cm/s]	microsomal CLint at 1 uM [2, 4] [µL/min/mg]
CC(C)C[C@@H]1NC(=O)[C@H](Cc2ccccc2)N(C)C(=O)[C@H]([C@@H](C)O)NC(=O)[C@H](Cc2ccccc2)N(C)C(=O)[C@H](C)N(C)C(=O)[C@H](C)NC(=O)C[C@@H](C(=O)N2CCCCC2)NC(=O)[C@@H]2CCCN2C1=O [DP-530] (A[NMeA][NMeF]T[NMeF]LPD-Piperidide; lactam N-8)	11	37		
CC(C)C[C@H]1C(=O)N[C@H](C(=O)N2CCCCC2)CC(=O)N(C)CC(=O)N[C@@H]([C@@H](C)O)C(=O)N(C)[C@@H](C)C(=O)N[C@@H](COC(C)(C)C)C(=O)N(C)[C@@H](Cc2ccccc2)C(=O)N1C [DP-531] ([Sar]T[NMeA]S(tBu)[NMeF][NMeL]D-Piperidide; lactam N-7)			5.8	42
CC(C)C[C@H]1C(=O)N[C@H](C(=O)N2CCCCC2)CC(=O)N(C)CCC(=O)N[C@@H]([C@@H](C)O)C(=O)N(C)[C@@H](C)C(=O)N[C@@H](COC(C)(C)C)C(=O)N(C)[C@@H](Cc2ccccc2)C(=O)N1C [DP-532] ([NMeβAla]T[NMeA]S(tBu)[NMeF][NMeL]D-Piperidide; lactam N-7)			20	105
CC(C)C[C@H]1C(=O)N[C@H](C(=O)N2CCCCC2)CC(=O)N(C)[C@@H](C)C(=O)N(C)[C@@H](Cc2ccccc2)C(=O)N(C)[C@@H](CC(C)C)C(=O)N[C@@H]([C@@H](C)O)C(=O)N(C)CC(=O)N1C [DP-533] ([NMeA][NMeF][NMeL]T[Sar][NMeL]D-Piperidide; lactam N-7)			10	86
CC(C)C[C@H]1C(=O)N(C)CC(=O)N(C)[C@@H](Cc2ccccc2)C(=O)N[C@@H](COC(C)(C)C)C(=O)N[C@H](C(=O)N2CCCCC2)CC(=O)N(C)CCCC(=O)N[C@@H]([C@@H](C)O)C(=O)N1C [DP-534] ([NMeGABA]T[NMeL][Sar][NMeF]S(tBu)D-Piperidide; lactam N-7)			6.3	55
CC(C)C[C@H]1C(=O)N[C@H](C(=O)N2CCCCC2)CC(=O)N(C)CCCC(=O)N(C)[C@@H](Cc2ccccc2)C(=O)N[C@@H]([C@@H](C)O)C(=O)N(C)CC(=O)N[C@@H](COC(C)(C)C)C(=O)N1C [DP-535] ([NMeGABA][NMeF]T[Sar]S(tBu)[NMeL]D-Piperidide; lactam N-7)			21	129
CC(C)C[C@H]1C(=O)N[C@H](C(=O)N2CCCCC2)CC(=O)N(C)[C@H](C)C(=O)N(C)[C@@H](CC(C)C)C(=O)N[C@@H]([C@@H](C)O)C(=O)N(C)CC(=O)N[C@@H](COC(C)(C)C)C(=O)N1C [DP-536] ([dNMeA][NMeL]T[Sar]S(tBu)[NMeL]D-Piperidide; lactam N-7)			9.9	113
CC(C)C[C@H]1C(=O)N[C@H](C(=O)N2CCCCC2)CC(=O)N[C@H](C)C(=O)N(C)[C@@H](Cc2ccccc2)C(=O)N(C)[C@@H](CC(C)C)C(=O)N[C@@H]([C@@H](C)O)C(=O)N(C)CC(=O)N1C [DP-537] ([dA][NMeF][NMeL]T[Sar][NMeL]D-Piperidide; lactam N-7)			10	78
CC(C)C[C@H]1C(=O)N[C@@H]([C@@H](C)O)C(=O)N(C)[C@@H](C)C(=O)N[C@H](C(=O)N2CCCCC2)CC(=O)N[C@H](C)C(=O)N(C)[C@@H](C)C(=O)N(C)[C@@H](Cc2ccccc2)C(=O)N1C [DP-538] ([dA][NMeA][NMeF][NMeL]T[NMeA]D-Piperidide; lactam N-7)			5.5	37
CC(C)C[C@@H]1NC(=O)[C@H](Cc2ccccc2)N(C)C(=O)[C@H]([C@@H](C)O)NC(=O)[C@H](Cc2ccccc2)N(C)C(=O)[C@H](C)N(C)C(=O)[C@H](C)NC(=O)C[C@@H](C(=O)N2CCCCC2)NC1=O [DP-539] (A[NMeA][NMeF]T[NMeF]LD-Piperidide; lactam N-7)			20	260
CCCN1CC(=O)N(C)[C@@H](Cc2ccccc2)C(=O)N(C)[C@@H](Cc2ccccc2)C(=O)N(C)[C@@H](CC(C)C)C(=O)N2CCC[C@H]2C(=O)N(C)[C@@H](CC(C)C)C(=O)N[C@@H](C)C(=O)N(C)[C@@H](C(C)C)C(=O)N[C@H](C(=O)N2CCCCC2)CC(=O)N(C)[C@@H](C)C(=O)N[C@@H]([C@@H](C)O)C1=O [DP-541] ([NMeA]T[NPrGly][NMeF][NMeF][NMeL]P[NMeL]A[NMeV]D-Piperidide; lactam N-11)	23	22		
CCN1C(=O)CN(C)C(=O)[C@H]([C@@H](C)O)NC(=O)[C@H](C)N(C)C(=O)C[C@@H](C(=O)N2CCCCC2)NC(=O)[C@H](C(C)C)N(C)C(=O)[C@H](C)NC(=O)[C@H](CC(C)C)N(C)C(=O)[C@@H]2CCCN2C(=O)[C@H](CC(C)C)N(C)C(=O)[C@H](Cc2ccccc2)N(C)C(=O)[C@@H]1Cc1ccccc1 [DP-542] ([NMeA]T[Sar][NEtPhe][NMeF][NMeL]P[NMeL]A[NMeV]D-Piperidide; lactam N-11)	22	21		
CCCN1CC(=O)N(C)[C@@H](CC(C)C)C(=O)N[C@@H]([C@@H](C)O)C(=O)N(C)[C@@H](Cc2ccccc2)C(=O)N(C)[C@@H](CC(C)C)C(=O)N(C)[C@@H]([C@@H](C)CC)C(=O)N(C)[C@@H](C)C(=O)N[C@H](C(=O)N2CCCCC2)CC(=O)N(C)CC(=O)N[C@@H](COC(C)(C)C)C1=O [DP-543] ([Sar]S(tBu)[NPrGly][NMeL]T[NMeF][NMeL][NMeI][NMeA]D-Piperidide; lactam N-10)			28	23
CCCN1CC(=O)N[C@@H](CC(C)C)C(=O)N[C@@H]([C@@H](C)O)C(=O)N(C)CC(=O)N(C)[C@@H](Cc2ccccc2)C(=O)N[C@@H](C)C(=O)N(C)[C@@H](Cc2ccccc2)C(=O)N(C)[C@@H](CC(C)C)C(=O)N(C)[C@@H]([C@@H](C)CC)C(=O)N(C)[C@@H](CC(C)C)C(=O)N[C@H](C(=O)N2CCCCC2)CC1=O [DP-544] ([NPrGly]LT[Sar][NMeF]A[NMeF][NMeL][NMeI][NMeL]D-Piperidide; lactam N-11)			42	45
CCCN1CC(=O)N(C)[C@@H](Cc2ccccc2)C(=O)N[C@@H](C)C(=O)N(C)[C@@H](Cc2ccccc2)C(=O)N(C)[C@@H](CC(C)C)C(=O)N(C)[C@@H]([C@@H](C)CC)C(=O)N(C)[C@@H](CC(C)C)C(=O)N[C@H](C(=O)N2CCCCC2)CC(=O)N(C)CC(=O)N[C@@H](CC(C)C)C(=O)N[C@@H]([C@@H](C)O)C1=O [DP-545] ([Sar]LT[NPrGly][NMeF]A[NMeF][NMeL][NMeI][NMeL]D-Piperidide; lactam N-11)			40	36
CC[C@H](C)[C@H]1C(=O)N(C)[C@@H](CC(C)C)C(=O)N[C@H](C(=O)N2CCCCC2)CC(=O)N(C)CC(=O)N[C@@H](CC(C)C)C(=O)N[C@@H]([C@@H](C)O)C(=O)N(C)CC(=O)N(CC)[C@@H](Cc2ccccc2)C(=O)N[C@@H](C)C(=O)N(C)[C@@H](Cc2ccccc2)C(=O)N(C)[C@@H](CC(C)C)C(=O)N1C [DP-546] ([Sar]LT[Sar][NEtPhe]A[NMeF][NMeL][NMeI][NMeL]D-Piperidide; lactam N-11)			41	34
CC(C)C[C@@H]1NC(=O)[C@H](CC(C)C)NC(=O)[C@H](C)N(C)C(=O)C[C@@H](C(=O)N2CCCCC2)NC(=O)[C@H](C(C)C)N(C)C(=O)[C@H](CC(C)C)NC(=O)[C@H](Cc2ccccc2)NC(=O)[C@H]([C@@H](C)O)NC(=O)CN(C)C(=O)[C@H](CC(C)C)NC(=O)C(C)(C)NC1=O [DP-560] ([NMeA]LL[Aib]L[Sar]TFL[NMeV]D-Piperidide; lactam N-11)			26	28
CC(C)C[C@@H]1NC(=O)[C@H](CC(C)C)NC(=O)[C@H](C)N(C)C(=O)C[C@@H](C(=O)N2CCCCC2)NC(=O)[C@H](C(C)C)N(C)C(=O)[C@H](CC(C)C)NC(=O)[C@H](Cc2ccccc2)NC(=O)[C@H]([C@@H](C)O)NC(=O)CN(C)C(=O)[C@H](CC(C)C)NC(=O)[C@H](c2ccccc2)NC1=O [DP-561] ([NMeA]LL[Phg]L[Sar]TFL[NMeV]D-Piperidide; lactam N-11)			24	48
CC(C)C[C@H]1C(=O)NCC(=O)N[C@H](C(=O)N2CCCCC2)CC(=O)N[C@@H](c2ccccc2)C(=O)N[C@@H]([C@@H](C)O)C(=O)N(C)[C@@H](C)C(=O)N(C)[C@@H](Cc2ccccc2)C(=O)N(C)[C@@H](Cc2ccccc2)C(=O)N[C@@H](COC(C)(C)C)C(=O)N1C [DP-563] ([Phg]T[NMeA][NMeF][NMeF]S(tBu)[NMeL]GD-Piperidide; lactam N-9)			35	111
CC[C@H](C)[C@H]1C(=O)NCC(=O)N(C)[C@@H](CC(C)C)C(=O)N[C@@H]([C@@H](C)O)C(=O)N2CCC[C@H]2C(=O)NC(C)(C)C(=O)N[C@H](C(=O)N2CCCCC2)CC(=O)N(C)[C@@H](C)C(=O)N[C@@H](Cc2ccccc2)C(=O)N(C)[C@@H](CC(C)C)C(=O)N[C@@H](CC(C)C)C(=O)N1C [DP-564] ([NMeA]F[NMeL]L[NMeI]G[NMeL]TP[Aib]D-Piperidide; lactam N-11)			27	80
